Laboratory results from PubChem BioAssay AID2060346 (Molecular Pharmacology Branch, DTP, NCI, 2025).

System: CN0375-F725-PDC multi-cell spheroids, viability
Test: Anticancer human tumor CN0375-F725-PDC patient-derived colon carcinoma cell line growth inhibition [TAK]
Conditions: for IC50: curve of first compound; for viability, T/C: stronger effect = lower value
Summary of the method: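 Spheroids of 60% malignant cells, 25% HUVEC and 15% hMSC were exposed to targeted agents combined with TAK-243 or ipatasertib. Concentrations started at or near clinical Cmax (10 microM if unknown) and descended in half-log steps.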

[1] = second compound 0.3 µM, first compound 0.0316 µM
[2] = second compound 0.3 µM, first compound 0.1 µM
[3] = second compound 0.3 µM, first compound 0.316 µM
[4] = second compound 0.3 µM, first compound 1 µM
[5] = second compound 0.3 µM, first compound 3.16 µM
[6] = second compound 0.3 µM, first compound 10 µM
[7] = second compound 0.949 µM, first compound 0.0316 µM
[8] = second compound 0.949 µM, first compound 0.1 µM
[9] = second compound 0.949 µM, first compound 0.316 µM
[10] = second compound 0.949 µM, first compound 1 µM
[11] = second compound 0.949 µM, first compound 3.16 µM
[12] = second compound 0.949 µM, first compound 10 µM
[13] = second compound 3 µM, first compound 0.0316 µM
[14] = second compound 3 µM, first compound 0.1 µM
[15] = second compound 3 µM, first compound 0.316 µM
[16] = second compound 3 µM, first compound 1 µM
[17] = second compound 3 µM, first compound 3.16 µM
[18] = second compound 3 µM, first compound 10 µM
[19] = second compound 9.49 µM, first compound 0.0316 µM
[20] = second compound 9.49 µM, first compound 0.1 µM
[21] = second compound 9.49 µM, first compound 0.316 µM
[22] = second compound 9.49 µM, first compound 1 µM
[23] = second compound 9.49 µM, first compound 3.16 µM
[24] = second compound 9.49 µM, first compound 10 µM
[25] = second compound 30 µM, first compound 0.0316 µM
[26] = second compound 30 µM, first compound 0.1 µM
[27] = second compound 30 µM, first compound 0.316 µM
[28] = second compound 30 µM, first compound 1 µM
[29] = second compound 30 µM, first compound 3.16 µM
[30] = second compound 30 µM, first compound 10 µM
[31] = second compound 0.3 µM, first compound 0.000316 µM
[32] = second compound 0.3 µM, first compound 0.001 µM
[33] = second compound 0.3 µM, first compound 0.00316 µM
[34] = second compound 0.3 µM, first compound 0.01 µM
[35] = second compound 0.949 µM, first compound 0.000316 µM
[36] = second compound 0.949 µM, first compound 0.001 µM
[37] = second compound 0.949 µM, first compound 0.00316 µM
[38] = second compound 0.949 µM, first compound 0.01 µM
[39] = second compound 3 µM, first compound 0.000316 µM
[40] = second compound 3 µM, first compound 0.001 µM
[41] = second compound 3 µM, first compound 0.00316 µM
[42] = second compound 3 µM, first compound 0.01 µM
[43] = second compound 9.49 µM, first compound 0.000316 µM
[44] = second compound 9.49 µM, first compound 0.001 µM
[45] = second compound 9.49 µM, first compound 0.00316 µM
[46] = second compound 9.49 µM, first compound 0.01 µM
[47] = second compound 30 µM, first compound 0.000316 µM
[48] = second compound 30 µM, first compound 0.001 µM
[49] = second compound 30 µM, first compound 0.00316 µM
[50] = second compound 30 µM, first compound 0.01 µM
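Note: spheroids exposed to drugs for seven days.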
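Throughout, for viability, T/C: 100% = DMSO vehicle control wells.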

Compound: CC(C)(C)c1nc(-c2cccc(NS(=O)(=O)c3c(F)cccc3F)c2F)c(-c2ccnc(N)n2)s1 + CC(C)NCC(C(=O)N1CCN(c2ncnc3c2C(C)CC3O)CC1)c1ccc(Cl)cc1
- IC50 (second compound 0.3 µM): > 10000 nM
- IC50 (second compound 0.949 µM): > 10000 nM
- IC50 (second compound 3 µM): > 10000 nM
- IC50 (second compound 9.49 µM): > 10000 nM
- IC50 (second compound 30 µM): > 10000 nM
- viability, T/C [1]: 121%
- viability, T/C [2]: 128%
- viability, T/C [3]: 124%
- viability, T/C [4]: 118%
- viability, T/C [5]: 105%
- viability, T/C [6]: 108%
- viability, T/C [7]: 123%
- viability, T/C [8]: 125%
- viability, T/C [9]: 120%
- viability, T/C [10]: 111%
- viability, T/C [11]: 95%
- viability, T/C [12]: 107%
- viability, T/C [13]: 108%
- viability, T/C [14]: 119%
- viability, T/C [15]: 120%
- viability, T/C [16]: 103%
- viability, T/C [17]: 94.9%
- viability, T/C [18]: 92.1%
- viability, T/C [19]: 98%
- viability, T/C [20]: 108%
- viability, T/C [21]: 105%
- viability, T/C [22]: 97.9%
- viability, T/C [23]: 85.4%
- viability, T/C [24]: 86.2%
- viability, T/C [25]: 94.3%
- viability, T/C [26]: 102%
- viability, T/C [27]: 89.6%
- viability, T/C [28]: 79.3%
- viability, T/C [29]: 77.7%
- viability, T/C [30]: 75%

Compound: CC(C)CC(NC(=O)CNC(=O)c1cc(Cl)ccc1Cl)B1OC(=O)CC(CC(=O)O)(C(=O)O)O1 (stereo not given) + CC(C)NCC(C(=O)N1CCN(c2ncnc3c2C(C)CC3O)CC1)c1ccc(Cl)cc1
- IC50 (second compound 0.3 µM): 49.3 nM
- IC50 (second compound 0.949 µM): 43.2 nM
- IC50 (second compound 3 µM): 45.8 nM
- IC50 (second compound 9.49 µM): 30.6 nM
- IC50 (second compound 30 µM): 17.5 nM
- viability, T/C [31]: 102%
- viability, T/C [32]: 104%
- viability, T/C [33]: 108%
- viability, T/C [34]: 99.4%
- viability, T/C [1]: 68.4%
- viability, T/C [2]: 20.7%
- viability, T/C [35]: 102%
- viability, T/C [36]: 99.8%
- viability, T/C [37]: 102%
- viability, T/C [38]: 98.8%
- viability, T/C [7]: 60.3%
- viability, T/C [8]: 22.4%
- viability, T/C [39]: 91.8%
- viability, T/C [40]: 101%
- viability, T/C [41]: 96.7%
- viability, T/C [42]: 101%
- viability, T/C [13]: 65.9%
- viability, T/C [14]: 16.4%
- viability, T/C [43]: 86%
- viability, T/C [44]: 92.5%
- viability, T/C [45]: 93.4%
- viability, T/C [46]: 93.6%
- viability, T/C [19]: 48.8%
- viability, T/C [20]: 15.6%
- viability, T/C [47]: 77.9%
- viability, T/C [48]: 91.7%
- viability, T/C [49]: 88.2%
- viability, T/C [50]: 76.2%
- viability, T/C [25]: 22.2%
- viability, T/C [26]: 5.95%

Compound: CC(C)n1nc(-c2ccc3oc(N)nc3c2)c2c(N)ncnc21 + CC(C)NCC(C(=O)N1CCN(c2ncnc3c2C(C)CC3O)CC1)c1ccc(Cl)cc1
- IC50 (second compound 0.3 µM): > 100 nM
- IC50 (second compound 0.949 µM): > 100 nM
- IC50 (second compound 3 µM): > 100 nM
- IC50 (second compound 9.49 µM): 76.5 nM
- IC50 (second compound 30 µM): 24.3 nM
- viability, T/C [31]: 108%
- viability, T/C [32]: 102%
- viability, T/C [33]: 95.8%
- viability, T/C [34]: 79.2%
- viability, T/C [1]: 71.1%
- viability, T/C [2]: 59.5%
- viability, T/C [35]: 96.9%
- viability, T/C [36]: 99.5%
- viability, T/C [37]: 89.7%
- viability, T/C [38]: 80.3%
- viability, T/C [7]: 68.3%
- viability, T/C [8]: 57.5%
- viability, T/C [39]: 90.6%
- viability, T/C [40]: 95.3%
- viability, T/C [41]: 87.4%
- viability, T/C [42]: 80.3%
- viability, T/C [13]: 65.9%
- viability, T/C [14]: 54.4%
- viability, T/C [43]: 84.9%
- viability, T/C [44]: 91.4%
- viability, T/C [45]: 82.6%
- viability, T/C [46]: 77.3%
- viability, T/C [19]: 60.3%
- viability, T/C [20]: 46.9%
- viability, T/C [47]: 67.7%
- viability, T/C [48]: 69.2%
- viability, T/C [49]: 75.6%
- viability, T/C [50]: 68.5%
- viability, T/C [25]: 44.4%
- viability, T/C [26]: 36.6%

Compound: CCCS(=O)(=O)Nc1ccc(F)c(C(=O)c2c[nH]c3ncc(-c4ccc(Cl)cc4)cc23)c1F + CC(C)NCC(C(=O)N1CCN(c2ncnc3c2C(C)CC3O)CC1)c1ccc(Cl)cc1
- IC50 (second compound 0.3 µM): > 100000 nM
- IC50 (second compound 0.949 µM): > 100000 nM
- IC50 (second compound 3 µM): > 100000 nM
- IC50 (second compound 9.49 µM): 8150 nM
- IC50 (second compound 30 µM): 3750 nM
- viability, T/C [3]: 105%
- viability, T/C [4]: 120%
- viability, T/C [5]: 106%
- viability, T/C [6]: 66.1%
- viability, T/C (second compound 0.3 µM, first compound 31.6 µM): 26.5%
- viability, T/C (second compound 0.3 µM, first compound 100 µM): 121%
- viability, T/C [9]: 101%
- viability, T/C [10]: 109%
- viability, T/C [11]: 99.8%
- viability, T/C [12]: 58.8%
- viability, T/C (second compound 0.949 µM, first compound 31.6 µM): 10.6%
- viability, T/C (second compound 0.949 µM, first compound 100 µM): 105%
- viability, T/C [15]: 98.2%
- viability, T/C [16]: 110%
- viability, T/C [17]: 89%
- viability, T/C [18]: 54.7%
- viability, T/C (second compound 3 µM, first compound 31.6 µM): 9.13%
- viability, T/C (second compound 3 µM, first compound 100 µM): 99.8%
- viability, T/C [21]: 95.7%
- viability, T/C [22]: 95.5%
- viability, T/C [23]: 79.8%
- viability, T/C [24]: 24.1%
- viability, T/C (second compound 9.49 µM, first compound 31.6 µM): 27.2%
- viability, T/C (second compound 9.49 µM, first compound 100 µM): 79.5%
- viability, T/C [27]: 86%
- viability, T/C [28]: 82.2%
- viability, T/C [29]: 54.7%
- viability, T/C [30]: 13.9%
- viability, T/C (second compound 30 µM, first compound 31.6 µM): 2.73%
- viability, T/C (second compound 30 µM, first compound 100 µM): 52.6%
